Data on 25 molecules can be found in ChEMBL document CHEMBL1926681, “Novel inhibitors of epidermal growth factor receptor: (4-(Arylamino)-7H-pyrrolo[2,3-d]pyrimidin-6-yl)(1H-indol-2-yl)methanones and (1H-indol-2-yl)(4-(phenylamino)thieno[2,3-d]pyrimidin-6-yl)methanones” (Bioorg Med Chem, 2012).

The target of test [1] is T1, Epidermal growth factor receptor (Homo sapiens, UniProt P00533). The test is described as follows: Inhibition of EGFR using poly(Glu,Tyr)4:1 as substrate and [gamma33P]ATP at 1 uM after 60 mins by scintillation counting.
T1 sequence (P00533 whole entry): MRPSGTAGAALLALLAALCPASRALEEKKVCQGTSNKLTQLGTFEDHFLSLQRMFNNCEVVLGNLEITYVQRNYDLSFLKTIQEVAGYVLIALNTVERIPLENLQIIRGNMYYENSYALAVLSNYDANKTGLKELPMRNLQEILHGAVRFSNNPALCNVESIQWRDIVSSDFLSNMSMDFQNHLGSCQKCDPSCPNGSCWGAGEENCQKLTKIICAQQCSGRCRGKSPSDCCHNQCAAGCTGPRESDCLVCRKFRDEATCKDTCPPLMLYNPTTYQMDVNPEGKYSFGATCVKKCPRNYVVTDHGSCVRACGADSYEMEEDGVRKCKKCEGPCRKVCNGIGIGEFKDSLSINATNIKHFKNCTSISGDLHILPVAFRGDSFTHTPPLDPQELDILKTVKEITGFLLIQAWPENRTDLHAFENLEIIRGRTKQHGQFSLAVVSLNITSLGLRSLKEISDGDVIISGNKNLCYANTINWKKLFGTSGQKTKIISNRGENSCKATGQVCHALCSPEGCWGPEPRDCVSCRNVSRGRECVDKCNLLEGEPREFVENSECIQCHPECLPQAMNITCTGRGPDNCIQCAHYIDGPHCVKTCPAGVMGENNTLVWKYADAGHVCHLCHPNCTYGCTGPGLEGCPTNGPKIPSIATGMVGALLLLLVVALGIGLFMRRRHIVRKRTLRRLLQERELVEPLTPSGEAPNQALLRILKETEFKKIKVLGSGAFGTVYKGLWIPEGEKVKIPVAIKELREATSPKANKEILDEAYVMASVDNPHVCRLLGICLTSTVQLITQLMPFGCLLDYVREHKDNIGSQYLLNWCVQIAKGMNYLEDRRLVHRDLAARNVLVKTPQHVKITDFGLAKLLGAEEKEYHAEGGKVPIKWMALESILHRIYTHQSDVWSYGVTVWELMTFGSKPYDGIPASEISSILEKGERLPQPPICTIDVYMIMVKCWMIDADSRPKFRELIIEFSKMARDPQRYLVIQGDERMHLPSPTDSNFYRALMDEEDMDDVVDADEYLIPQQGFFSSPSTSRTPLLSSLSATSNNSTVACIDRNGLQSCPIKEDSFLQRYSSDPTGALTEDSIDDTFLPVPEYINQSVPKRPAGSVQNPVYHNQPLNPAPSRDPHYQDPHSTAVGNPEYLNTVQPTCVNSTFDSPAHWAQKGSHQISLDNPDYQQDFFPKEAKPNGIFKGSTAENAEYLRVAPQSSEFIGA
Test [2] has as its target T1, Epidermal growth factor receptor. As to the kind of experiment: Inhibition of EGFR using poly(Glu,Tyr)4:1 as substrate and [gamma33P]ATP after 60 mins by scintillation counting.
Test [3] addresses Receptor tyrosine-protein kinase erbB-2 (Homo sapiens) (UniProt P04626). The test is described as follows: Inhibition of Erbb2 using poly(Glu,Tyr)4:1 as substrate and [gamma33P]ATP at 1 uM after 60 mins by scintillation counting.
Test [4] has as its target Vascular endothelial growth factor receptor 2 (Homo sapiens) (UniProt P35968). The test is described as follows: Inhibition of VEGFR2 using poly(Glu,Tyr)4:1 as substrate and [gamma33P]ATP at 1 uM after 60 mins by scintillation counting.
The target in test [5] is Tyrosine-protein kinase ABL1 (Homo sapiens) (UniProt P00519). As to the kind of experiment: Inhibition of ABL1 using poly(Ala, Glu, Lys, Tyr) as substrate and [gamma33P]ATP at 1 uM after 60 mins by scintillation counting.
Sequence of Tyrosine-protein kinase ABL1 (Homo sapiens) (P00519 whole entry): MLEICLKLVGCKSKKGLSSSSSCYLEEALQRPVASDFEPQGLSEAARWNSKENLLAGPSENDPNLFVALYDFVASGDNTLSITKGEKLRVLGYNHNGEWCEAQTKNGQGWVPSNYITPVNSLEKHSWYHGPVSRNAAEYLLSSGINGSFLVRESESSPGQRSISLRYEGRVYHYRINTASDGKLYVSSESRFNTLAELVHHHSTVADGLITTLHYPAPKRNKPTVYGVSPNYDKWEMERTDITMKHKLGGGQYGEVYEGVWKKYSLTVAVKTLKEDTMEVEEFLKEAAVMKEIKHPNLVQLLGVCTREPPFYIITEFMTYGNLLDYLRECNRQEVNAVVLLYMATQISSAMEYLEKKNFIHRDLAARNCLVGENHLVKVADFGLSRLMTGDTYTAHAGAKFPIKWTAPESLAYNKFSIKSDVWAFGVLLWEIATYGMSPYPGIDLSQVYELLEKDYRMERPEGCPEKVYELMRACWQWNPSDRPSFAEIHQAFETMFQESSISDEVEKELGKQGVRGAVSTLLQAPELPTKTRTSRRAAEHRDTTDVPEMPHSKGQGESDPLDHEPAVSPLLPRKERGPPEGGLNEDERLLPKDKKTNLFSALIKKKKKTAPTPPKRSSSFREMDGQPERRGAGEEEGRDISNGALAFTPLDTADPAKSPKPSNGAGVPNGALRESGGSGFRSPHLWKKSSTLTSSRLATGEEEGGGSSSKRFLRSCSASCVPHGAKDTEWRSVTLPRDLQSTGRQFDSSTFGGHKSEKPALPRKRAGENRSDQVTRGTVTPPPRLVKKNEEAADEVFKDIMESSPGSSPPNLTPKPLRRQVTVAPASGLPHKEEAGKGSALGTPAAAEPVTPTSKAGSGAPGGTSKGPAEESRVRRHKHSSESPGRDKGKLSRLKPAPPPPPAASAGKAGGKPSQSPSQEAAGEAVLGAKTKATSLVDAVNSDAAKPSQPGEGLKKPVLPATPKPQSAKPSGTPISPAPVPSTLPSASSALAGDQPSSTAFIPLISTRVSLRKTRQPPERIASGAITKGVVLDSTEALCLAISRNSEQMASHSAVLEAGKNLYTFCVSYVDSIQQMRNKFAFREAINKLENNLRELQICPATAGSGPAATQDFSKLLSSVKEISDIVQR
Test [6] concerns the target Hepatocyte growth factor receptor (Homo sapiens) (UniProt P08581). As to the kind of experiment: Inhibition of MET using poly(Ala, Glu, Lys, Tyr) as substrate and [gamma33P]ATP at 1 uM after 60 mins by scintillation counting.

Active and inactive are the calls of the source. The calls are words filed in the database; no cut-off is given here.

Sequence of Receptor tyrosine-protein kinase erbB-2 (Homo sapiens) (P04626 whole entry): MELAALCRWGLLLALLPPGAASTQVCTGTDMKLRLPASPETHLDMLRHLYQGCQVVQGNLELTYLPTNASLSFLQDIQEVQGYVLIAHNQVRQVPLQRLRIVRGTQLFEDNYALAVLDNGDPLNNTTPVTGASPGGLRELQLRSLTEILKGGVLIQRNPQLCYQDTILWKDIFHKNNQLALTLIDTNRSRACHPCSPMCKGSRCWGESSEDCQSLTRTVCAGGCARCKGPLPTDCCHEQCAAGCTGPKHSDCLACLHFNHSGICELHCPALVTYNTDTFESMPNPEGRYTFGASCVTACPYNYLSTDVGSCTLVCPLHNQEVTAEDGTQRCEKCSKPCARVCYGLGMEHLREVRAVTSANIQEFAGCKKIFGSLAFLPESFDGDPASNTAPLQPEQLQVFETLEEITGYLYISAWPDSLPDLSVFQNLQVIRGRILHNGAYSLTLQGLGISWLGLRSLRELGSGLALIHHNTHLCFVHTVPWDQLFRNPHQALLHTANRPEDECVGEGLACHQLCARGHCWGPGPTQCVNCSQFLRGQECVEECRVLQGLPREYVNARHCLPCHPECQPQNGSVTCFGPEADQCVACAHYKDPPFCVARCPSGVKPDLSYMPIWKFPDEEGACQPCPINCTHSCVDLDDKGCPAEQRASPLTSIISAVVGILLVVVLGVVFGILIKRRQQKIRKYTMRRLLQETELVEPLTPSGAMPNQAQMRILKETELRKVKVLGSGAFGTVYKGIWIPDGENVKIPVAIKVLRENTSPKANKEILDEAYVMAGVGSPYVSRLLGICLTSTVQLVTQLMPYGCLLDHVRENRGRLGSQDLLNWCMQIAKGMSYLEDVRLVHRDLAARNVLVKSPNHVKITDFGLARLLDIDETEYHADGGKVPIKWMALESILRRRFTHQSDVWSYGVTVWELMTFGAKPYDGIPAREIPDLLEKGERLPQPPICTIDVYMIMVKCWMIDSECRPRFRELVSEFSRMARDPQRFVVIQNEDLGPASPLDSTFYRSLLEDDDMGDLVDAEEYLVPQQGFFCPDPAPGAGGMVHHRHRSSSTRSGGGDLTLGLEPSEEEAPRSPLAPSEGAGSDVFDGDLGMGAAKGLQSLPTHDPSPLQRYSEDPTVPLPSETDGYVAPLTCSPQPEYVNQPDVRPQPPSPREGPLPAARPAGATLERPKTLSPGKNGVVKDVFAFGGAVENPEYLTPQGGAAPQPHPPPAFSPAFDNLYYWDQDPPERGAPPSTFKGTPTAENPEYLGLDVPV
Sequence of Hepatocyte growth factor receptor (Homo sapiens) (P08581 whole entry): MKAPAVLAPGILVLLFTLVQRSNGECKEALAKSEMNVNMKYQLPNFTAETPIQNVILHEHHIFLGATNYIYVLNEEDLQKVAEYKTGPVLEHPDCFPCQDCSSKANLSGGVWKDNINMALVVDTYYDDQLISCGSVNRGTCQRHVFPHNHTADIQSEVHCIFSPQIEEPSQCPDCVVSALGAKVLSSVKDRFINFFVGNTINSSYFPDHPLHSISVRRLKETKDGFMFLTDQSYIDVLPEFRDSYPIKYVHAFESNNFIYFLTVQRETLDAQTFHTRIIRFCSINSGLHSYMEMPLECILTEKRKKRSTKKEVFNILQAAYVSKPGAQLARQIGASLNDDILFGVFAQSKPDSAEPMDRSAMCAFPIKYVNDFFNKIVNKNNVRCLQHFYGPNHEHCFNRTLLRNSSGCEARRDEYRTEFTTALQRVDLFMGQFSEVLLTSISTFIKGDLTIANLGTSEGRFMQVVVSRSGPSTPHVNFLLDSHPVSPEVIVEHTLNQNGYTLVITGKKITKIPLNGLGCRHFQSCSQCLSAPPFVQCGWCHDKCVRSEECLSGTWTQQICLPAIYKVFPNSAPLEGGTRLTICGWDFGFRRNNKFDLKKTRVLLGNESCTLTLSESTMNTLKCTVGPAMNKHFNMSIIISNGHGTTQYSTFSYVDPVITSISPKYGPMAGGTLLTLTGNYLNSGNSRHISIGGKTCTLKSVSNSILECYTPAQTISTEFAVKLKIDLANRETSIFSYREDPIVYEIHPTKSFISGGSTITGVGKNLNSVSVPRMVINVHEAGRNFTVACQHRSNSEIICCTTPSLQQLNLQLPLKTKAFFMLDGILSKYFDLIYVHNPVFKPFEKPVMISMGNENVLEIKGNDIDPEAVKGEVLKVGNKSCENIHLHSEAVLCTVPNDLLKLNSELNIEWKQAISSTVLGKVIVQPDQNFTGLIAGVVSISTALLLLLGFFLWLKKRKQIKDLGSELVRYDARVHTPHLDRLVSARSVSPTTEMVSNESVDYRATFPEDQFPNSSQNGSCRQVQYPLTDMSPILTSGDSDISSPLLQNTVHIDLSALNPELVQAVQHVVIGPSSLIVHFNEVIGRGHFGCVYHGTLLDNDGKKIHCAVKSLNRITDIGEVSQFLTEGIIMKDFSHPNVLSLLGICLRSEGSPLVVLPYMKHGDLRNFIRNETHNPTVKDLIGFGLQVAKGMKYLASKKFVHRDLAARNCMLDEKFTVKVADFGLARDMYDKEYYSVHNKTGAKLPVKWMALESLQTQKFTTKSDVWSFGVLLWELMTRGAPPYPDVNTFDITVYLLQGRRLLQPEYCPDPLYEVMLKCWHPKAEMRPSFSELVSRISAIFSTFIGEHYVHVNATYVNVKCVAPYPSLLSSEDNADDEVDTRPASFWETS

A word on the inhibition: it is the share of the control response that was lost under treatment. The term IC50 denotes the concentration that gives 50% inhibition. Low values mean inhibition by little substance, high ones a need for much substance. Consider `O=C(c1cc2ccccc2s1)c1cc2c(Nc3ccc(F)c(Cl)c3)ncnc2s1`, for which the inhibition in test [1] turned out to be 99%; in test [3], 76%; in test [4] it was 22%. Moreover, it took 10.8 nM to reach half-maximal inhibition in test [2] (IC50). Moreover, the inhibition entry in test [5] and in test [6] was “inactive” throughout.

For `CN(c1ccc(F)c(Cl)c1)c1ncnc2sc(C(=O)c3cc4ccccc4[nH]3)cc12`, the results for the inhibition in test [1], in test [3] and in test [4] were 22%, 83% and 23%, respectively. Moreover, the inhibition entry in test [5] and in test [6] was “inactive” each time.

On to `COc1ccc2[nH]c(C(=O)c3cc4c(Nc5cccc(I)c5)ncnc4[nH]3)cc2c1`, for which the inhibition in test [1] was determined as 88%; in test [3] it was 25%; in test [4], 17%. Besides, the inhibition result in test [5] and in test [6] was “inactive” in each case.

With `O=C(c1cc2ccccc2o1)c1cc2c(Nc3ccc(F)c(Cl)c3)ncnc2s1`, the inhibition in test [1] worked out at 85%; in test [3] it was 88%; in test [4], 51%. For the same molecule, the inhibition entry in test [5] and in test [6] was “inactive” throughout.

For the molecule `O=C(c1cc2ccccc2[nH]1)c1cc2c(Nc3ccc(O)cc3)ncnc2[nH]1`, the inhibition in test [1] is 57%; in test [3] it was 7%; in test [4], 31%. Besides, the inhibition entry in test [5] and in test [6] was “inactive” throughout.

`C[C@@H](Nc1ncnc2[nH]c(C(=O)c3cc4ccccc4[nH]3)cc12)c1ccccc1`: the inhibition in test [1] came out at 82%; in test [3], 37%; in test [4] it was 28%. The inhibition result in test [5] and in test [6] was “inactive” each time.

With `O=C(c1cc2ccccc2[nH]1)c1cc2c(Nc3cccc(I)c3)ncnc2[nH]1`, the inhibition came out at 88% in test [1], 52% in test [3] and 10% in test [4]. Further, the inhibition entry in test [5] and in test [6] was “inactive” each time.

For `O=C(c1cc2ccccc2[nH]1)c1cc2c(Nc3cccc(I)c3)ncnc2s1`, the inhibition in test [1] was 73%; in test [3] it was 75%; in test [4], 0%. In addition, the inhibition result in test [5] and in test [6] was “inactive” throughout.

`O=C(c1cc2ccccc2[nH]1)c1cc2c(Nc3ccc(Cl)cc3)ncnc2s1`: the inhibition in test [1] was 80%; in test [3], 46%; in test [4], 19%. For the same molecule, the inhibition entry in test [5] and in test [6] was “inactive” throughout.

Take `O=C(c1cc2ccccc2[nH]1)c1cc2c(NCc3ccccc3)ncnc2s1`: the values for the inhibition in test [1], in test [3] and in test [4] were 77%, 38% and 17%, respectively. Further, the inhibition entry in test [5] and in test [6] was “inactive” in each case.

`O=C(c1cc2ccccc2[nH]1)c1cc2c(Nc3ccc(C(F)(F)F)cc3)ncnc2s1`: the inhibition in test [1] stood at 43%; in test [3], 34%; in test [4], 24%. Also, the inhibition result in test [5] and in test [6] was “inactive” each time.

As to `O=C(c1cc2ccccc2[nH]1)c1cc2c(Nc3ccc(Cl)cc3)ncnc2[nH]1`, the inhibition in test [1] turned out to be 68%; in test [3], 24%; in test [4], 47%. Moreover, the inhibition result in test [5] and in test [6] was “inactive” in each case.

Regarding `O=C(c1cc2ccccc2[nH]1)c1cc2c(Nc3cccc(C(F)(F)F)c3)ncnc2s1`, the inhibition in test [1] was determined as 79%; in test [3], 42%; in test [4] it was 29%. Besides, the inhibition result in test [5] and in test [6] was “inactive” in each case.

For the molecule `O=C(c1cc2ccccc2[nH]1)c1cc2c(Nc3ccc(OCc4cccc(F)c4)cc3Cl)ncnc2[nH]1`, the inhibition in test [1] was determined as 77%; in test [3], 13%; in test [4], 53%. Also, the inhibition entry in test [5] and in test [6] was “inactive” in each case.

`O=C(c1cc2ccccc2[nH]1)c1cc2c(Nc3ccc(F)cc3)ncnc2s1`: the inhibition stood at 96% in test [1], 50% in test [3] and 45% in test [4]. Also, in test [2], the IC50 came out at 43.7 nM. For the same molecule, the inhibition result in test [5] and in test [6] was “inactive” each time.

For the molecule `C[C@@H](Nc1ncnc2sc(C(=O)c3cc4ccccc4[nH]3)cc12)c1ccccc1`, the inhibition was found to be 88% in test [1], 61% in test [3] and 5% in test [4]. In addition, the inhibition result in test [5] and in test [6] was “inactive” throughout.

Take `C#Cc1cccc(Nc2ncnc3sc(C(=O)c4cc5ccccc5[nH]4)cc23)c1`: the inhibition in test [1] was 93%; in test [3], 60%; in test [4] it was 9%. The same molecule displayed an IC50 in test [2] of 18.7 nM. For the same molecule, the inhibition result in test [5] and in test [6] was “inactive” each time.

Take `O=C(c1cc2ccccc2[nH]1)c1cc2c(Nc3ccc(Br)cc3F)ncnc2[nH]1`: the inhibition is 50% in test [1], 14% in test [3] and 22% in test [4]. Besides, the inhibition entry in test [5] and in test [6] was “inactive” throughout.

Regarding `O=C(c1cc2ccccc2[nH]1)c1cc2c(Nc3ccc(F)c(Cl)c3)ncnc2[nH]1`, the inhibition in test [1] was found to be 88%; in test [3] it was 22%; in test [4] it was 47%. In addition, the inhibition entry in test [5] and in test [6] was “inactive” throughout.

With `COc1cnc2[nH]c(C(=O)c3cc4c(Nc5cccc(I)c5)ncnc4[nH]3)cc2c1`, the inhibition is 77% in test [1], 20% in test [3] and 20% in test [4]. The inhibition result in test [5] and in test [6] was “inactive” each time.

For the molecule `O=C(c1cc2ccccc2[nH]1)c1cc2c(Nc3ccc(OCc4cccc(F)c4)cc3Cl)ncnc2s1`, the inhibition in test [1] was 91%; in test [3], 57%; in test [4], 29%. This molecule gave a concentration for half-maximal inhibition (IC50) in test [2] of 18.5 nM. Also, the inhibition result in test [5] and in test [6] was “inactive” throughout.

For `O=C(c1cc2cc(O)ccc2[nH]1)c1cc2cncnc2[nH]1`, the inhibition in test [1], in test [3] and in test [4] was 0% each time. Also, the inhibition result in test [5] and in test [6] was “inactive” in each case.

Take `C#Cc1cccc(Nc2ncnc3[nH]c(C(=O)c4cc5ccccc5[nH]4)cc23)c1`: the inhibition was 83% in test [1], 70% in test [3] and 5% in test [4]. For the same molecule, the inhibition result in test [5] and in test [6] was “inactive” throughout.

Regarding `O=C(c1cc2ccccc2[nH]1)c1cc2c(Nc3ccc(Br)cc3F)ncnc2s1`, the figures for the inhibition in test [1], in test [3] and in test [4] were 82%, 51% and 46%, respectively. For the same molecule, the inhibition result in test [5] and in test [6] was “inactive” in each case.

Regarding `O=C(c1cc2ccccc2[nH]1)c1cc2c(NCc3ccccc3)ncnc2[nH]1`, the inhibition in test [1] was 55%; in test [4], 13%. Besides, the inhibition entry in test [5] and in test [6] was “inactive” each time.
